Assay results reported in ChEMBL document CHEMBL4417635, “2-hydroxyarylamide derivative or pharmaceutically acceptable salt thereof, preparation method thereof, and pharmaceutical composition for preventing or treating cancer containing same as active ingredient” (2013).

How the values were obtained:
[1] = biological target: Transmembrane protease serine 4 (Homo sapiens) (UniProt Q9NRS4); assay: (§1) Inhibition of TMPRSS4 serine protease domain (Val 205 to Leu 437 residues) (unknown origin) expressed in Escherichia coli BL21 (DE3) at 100 uM using […]-Gln-Ala-Arg-7-amido-4-methylcoumarin hydrochloride substrate and measured for 5 mins at 5 mins intervals by fluorescence based assay relative to control
[2] = biological target: Transmembrane protease serine 4 (Homo sapiens) (UniProt Q9NRS4); assay: Inhibition of TMPRSS4 (unknown origin) expressed in human SW480 cells assessed as reduction in cell migration at 25 uM incubated for 48 hrs by crystal violet staining based assay relative to control
[3] = biological target: Transmembrane protease serine 4 (Homo sapiens) (UniProt Q9NRS4); assay: Inhibition of TMPRSS4 serine protease domain (Val 205 to Leu 437 residues) (unknown origin) expressed in Escherichia coli BL21 (DE3) using […]-Gln-Ala-Arg-7-amido-4-methylcoumarin hydrochloride substrate and measured for 5 mins at 5 mins intervals by fluorescence based assay relative to control
[4] = biological target: Transmembrane protease serine 4 (Homo sapiens) (UniProt Q9NRS4); assay: as §1, with “30” for “100”
[5] = biological target: Transmembrane protease serine 4 (Homo sapiens) (UniProt Q9NRS4); assay: as §1, with “10” for “100”
[6] = biological target: Transmembrane protease serine 4 (Homo sapiens) (UniProt Q9NRS4); assay: Inhibition of TMPRSS4 (unknown origin) expressed in human SW480 cells assessed as reduction in cell migration at 5 uM incubated for 48 hrs by crystal violet staining based assay relative to control
[7] = biological target: Transmembrane protease serine 4 (Homo sapiens) (UniProt Q9NRS4); assay: Inhibition of TMPRSS4 (unknown origin) expressed in human SW480 cells assessed as reduction in cell migration at 0.8 uM incubated for 48 hrs by crystal violet staining based assay relative to control
[8] = biological target: Transmembrane protease serine 4 (Homo sapiens) (UniProt Q9NRS4); assay: Inhibition of TMPRSS4 (unknown origin) expressed in human SW480 cells assessed as reduction in cell migration at 2 uM incubated for 48 hrs by crystal violet staining based assay relative to control

Chain of Transmembrane protease serine 4 (Homo sapiens) (Q9NRS4 whole entry, the tested form may be a part): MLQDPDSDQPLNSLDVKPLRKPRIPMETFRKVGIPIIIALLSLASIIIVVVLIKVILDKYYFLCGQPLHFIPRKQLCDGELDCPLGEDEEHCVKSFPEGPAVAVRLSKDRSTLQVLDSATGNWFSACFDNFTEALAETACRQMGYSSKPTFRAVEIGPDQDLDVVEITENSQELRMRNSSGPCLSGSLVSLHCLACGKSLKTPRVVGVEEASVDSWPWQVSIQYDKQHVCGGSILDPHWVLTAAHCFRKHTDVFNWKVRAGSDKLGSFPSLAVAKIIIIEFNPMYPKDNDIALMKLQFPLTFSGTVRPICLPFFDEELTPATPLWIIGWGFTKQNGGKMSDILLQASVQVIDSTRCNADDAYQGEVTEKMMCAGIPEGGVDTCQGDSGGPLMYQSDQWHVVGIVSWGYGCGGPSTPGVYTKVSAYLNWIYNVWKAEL

**Q.** Which inhibition [1] does the source give for `O=C(Nc1cnc2ccccc2c1)c1cc(Cl)ccc1O` here?
**A.** 75%

**Q.** And the inhibition [2]?
**A.** 51%

**Q.** What about the inhibition [3] of the same compound?
**A.** Dose-dependent effect

**Q.** And the inhibition [4]?
**A.** 8%

**Q.** For `N#Cc1ccc(NC(=O)c2cc(Cl)ccc2O)nc1`, which inhibition [5] is on record?
**A.** 26%

**Q.** What about the inhibition [3] of the same compound?
**A.** Dose-dependent effect

**Q.** What about the inhibition [6] of the same compound?
**A.** 44%

**Q.** What about the inhibition [4] of the same compound?
**A.** 63%

**Q.** Which results are given for `O=C(Nc1cc(C(F)(F)F)ccc1Cl)c1cc(Cl)ccc1O`?
**A.** inhibition [1]: 100%; inhibition [5]: 64%; inhibition [3]: Dose-dependent effect; inhibition [4]: 99%

**Q.** How did the inhibition [1] turn out when `O=C(Nc1cc(C(F)(F)F)cc(C(F)(F)F)c1)c1cc(Cl)ccc1O` was run?
**A.** 100%

**Q.** What about the inhibition [5] of the same compound?
**A.** 64%

**Q.** What about the inhibition [3] of the same compound?
**A.** Dose-dependent effect

**Q.** And the inhibition [4]?
**A.** 96%

**Q.** And the inhibition [7]?
**A.** 76%

**Q.** Which results are given for `O=C(Nc1cc(C(F)(F)F)cc(C(F)(F)F)c1)c1cc2ccccc2cc1O`?
**A.** inhibition [5]: 58%; inhibition [3]: Dose-dependent effect; inhibition [4]: 96%; inhibition [7]: 72%

**Q.** What does the source list for `O=C(Nc1ccc(Br)c(C(F)(F)F)c1)c1cc(Cl)ccc1O`?
**A.** inhibition [1]: 98%; inhibition [5]: 30 to 80%; inhibition [3]: Dose-dependent effect; inhibition [4]: 46 to 93%

**Q.** What does the source list for `N#Cc1cccc(NC(=O)c2cc(Cl)ccc2O)c1`?
**A.** inhibition [1]: 88%; inhibition [5]: 12%; inhibition [3]: Dose-dependent effect; inhibition [4]: 47%

**Q.** What does the source list for `O=C(Nc1cc(Br)cc(C(F)(F)F)c1)c1cc(Cl)ccc1O`?
**A.** inhibition [1]: 100%; inhibition [5]: 64%; inhibition [3]: Dose-dependent effect; inhibition [4]: 100%

**Q.** For `N#Cc1ccc(NC(=O)c2cc(Cl)ccc2O)c(Cl)c1`, which inhibition [8] is on record?
**A.** 54%

**Q.** What about the inhibition [1] of the same compound?
**A.** 100%

**Q.** What about the inhibition [3] of the same compound?
**A.** Dose-dependent effect

**Q.** And the inhibition [4]?
**A.** 92%

**Q.** Which inhibition [5] does the source give for `O=C(Nc1ccc(C(F)(F)F)cc1[N+](=O)[O-])c1cc(Cl)ccc1O` here?
**A.** 53%

**Q.** And the inhibition [3]?
**A.** Dose-dependent effect

**Q.** And the inhibition [4]?
**A.** 98%

**Q.** And the inhibition [7]?
**A.** 76%

**Q.** `O=C(Nc1ccc(F)c(C(F)(F)F)c1)c1cc(Cl)ccc1O` was tested. Which inhibition [1] did it give?
**A.** 98%

**Q.** What about the inhibition [5] of the same compound?
**A.** 64%

**Q.** And the inhibition [3]?
**A.** Dose-dependent effect

**Q.** What about the inhibition [4] of the same compound?
**A.** 86%

**Q.** `O=C(Nc1ncccn1)c1cc(Cl)ccc1O` was tested. Which inhibition [1] did it give?
**A.** 2%

**Q.** And the inhibition [3]?
**A.** Dose-dependent effect

**Q.** And the inhibition [4]?
**A.** 0%

**Q.** Which results are given for `O=C(Nc1ccc(Cl)c(C(F)(F)F)c1)c1cc(Cl)ccc1O`?
**A.** inhibition [1]: 99%; inhibition [5]: 71%; inhibition [3]: Dose-dependent effect; inhibition [4]: 95%; inhibition [7]: 68%

**Q.** How did the inhibition [1] turn out when `Cc1csc(NC(=O)c2cc(Cl)ccc2O)n1` was run?
**A.** 67%

**Q.** What about the inhibition [3] of the same compound?
**A.** Dose-dependent effect

**Q.** And the inhibition [4]?
**A.** 0%

**Q.** With `O=C(Nc1cc(C(F)(F)F)ccc1F)c1cc(Cl)ccc1O` as the compound, how does the inhibition [1] read?
**A.** 100%

**Q.** And the inhibition [5]?
**A.** 67 to 100%

**Q.** And the inhibition [3]?
**A.** Dose-dependent effect

**Q.** What about the inhibition [4] of the same compound?
**A.** 100%

**Q.** With `O=C(Nc1nnc(C(F)(F)F)s1)c1cc(Cl)ccc1O` as the compound, how does the inhibition [1] read?
**A.** 100%

**Q.** And the inhibition [3]?
**A.** Dose-dependent effect

**Q.** What about the inhibition [6] of the same compound?
**A.** 29%

**Q.** What about the inhibition [4] of the same compound?
**A.** 75%

**Q.** With `COc1cc(NC(=O)c2cc(Cl)ccc2O)cc(C(F)(F)F)c1` as the compound, how does the inhibition [1] read?
**A.** 99%

**Q.** What about the inhibition [5] of the same compound?
**A.** 67%

**Q.** What about the inhibition [3] of the same compound?
**A.** Dose-dependent effect

**Q.** And the inhibition [4]?
**A.** 88%

**Q.** What about the inhibition [7] of the same compound?
**A.** 49%

**Q.** Which results are given for `N#Cc1ccc(NC(=O)c2cc(Cl)ccc2O)cc1C(F)(F)F`?
**A.** inhibition [8]: 81%; inhibition [1]: 100%; inhibition [3]: Dose-dependent effect; inhibition [4]: 88%

**Q.** Which inhibition [1] does the source give for `Cc1cc(C)nc(NC(=O)c2cc(Cl)ccc2O)n1` here?
**A.** 0%

**Q.** What about the inhibition [3] of the same compound?
**A.** Dose-dependent effect

**Q.** And the inhibition [4]?
**A.** 0%

**Q.** What does the source list for `O=C(Nc1nc(-c2ccccc2)cs1)c1cc(Cl)ccc1O`?
**A.** inhibition [8]: 75%; inhibition [1]: 98%; inhibition [3]: Dose-dependent effect; inhibition [4]: 91%

**Q.** Which results are given for `O=C(Nc1ccnc(Cl)c1)c1cc(Cl)ccc1O`?
**A.** inhibition [1]: 21%; inhibition [3]: Dose-dependent effect; inhibition [4]: 35%
